According to paper PMC7127791 (Bioorganic & Medicinal Chemistry Letters, 2016):
“Also recorded” adds a separate entry of the source.

Key:
Para-influenza-3 virus = assay: organism not typed; format: cell-based, Parainfluenza-3 virus; settings: Vero, read-out: Antiviral EC50 Para-influenza-3 virus
Reovirus-1 = assay: organism not typed; format: cell-based; settings: Vero, read-out: Antiviral EC50 Reovirus-1
[1] = tested on: broad and diverse panel of DNA and RNA viruses; format: cell-based
HEL cells = assay: Cytotoxicity; settings: human embryonic lung fibroblast cells; microscopy
Vero cells = assay: Cytotoxicity; settings: minimal cytotoxic concentration by microscopical inspection
HeLa cells = assay: Cytotoxicity; settings: HeLa cervix carcinoma cells; microscopy
MDCK cells = assay: Cytotoxicity; settings: Madin-Darby canine kidney cells; microscopy
varicella zoster virus = settings: human
Punta Toro virus [2] = format: cell-based
[3] = tested on: Rift Valley fever virus (MP-12 strain); format: cell-based
Punta Toro virus [4] = format: cell-based; remark: listed apart in the source
other cell lines tested = assay: Cytotoxicity in the other mammalian cell lines tested; settings: 100 μM compound concentration; cell lines other than Vero, HEL and MT4

| SMILES | EC50 (Para-influenza-3 virus) | EC50 (Reovirus-1) | Cytotoxicity MCC HEL (HEL cells) | Cytotoxicity MCC (Vero cells) | Cytotoxicity MCC HeLa (HeLa cells) | Cytotoxicity MCC MDCK (MDCK cells) | further results |
| --- | --- | --- | --- | --- | --- | --- | --- |
| CCOC(=O)C1=C(C)NC(=O)NC1c1ccccc1Cl (centres unmarked) [Compound 4b, Ethyl 4-(2-chlorophenyl)-6-methyl-2-oxo-1,2,3,4-tetrahydropyrimidine-5-carboxylate] | > 100 µM | > 100 µM | >100 µM | >100 µM | >100 µM | >100 µM | antiviral activity against the virus panel (in words) [1]: no antiviral activity |
| CCOC(=O)C1=C(C)NC(=O)NC1c1ccc(O)cc1 (centres unmarked) [Compound 4e, Ethyl 4-(4-hydroxyphenyl)-6-methyl-2-oxo-1,2,3,4-tetrahydropyrimidine-5-carboxylate] | > 100 µM | > 100 µM | >100 µM | >100 µM | >100 µM | >100 µM |  |
| CCOC(=O)C1=C(C)NC(=O)NC1c1ccc(N(C)C)cc1 (centres unmarked) [Compound 4g, Ethyl 4-[4-(dimethylamino)phenyl]-6-methyl-2-oxo-1,2,3,4-tetrahydropyrimidine-5-carboxylate] |  |  | >100 µM | 100 µM | >100 µM | >100 µM |  |
| CCOC(=O)C1=C(C)NC(=O)NC1/C=C/c1ccccc1 (centres unmarked) [Compound 4h, Ethyl 6-methyl-2-oxo-4-[(E)-2-phenylethenyl]-1,2,3,4-tetrahydropyrimidine-5-carboxylate] | > 100 µM | > 100 µM | >100 µM | 100 µM | ⩾100 μM | >100 µM | MCC reported with the varicella zoster virus EC50 (varicella zoster virus): 100 µM |
| CCOC(=O)C1=C(C)NC(=O)NC1c1cccs1 (centres unmarked) [Compound 4i, Ethyl 6-methyl-2-oxo-4-(thiophen-2-yl)-1,2,3,4-tetrahydropyrimidine-5-carboxylate] |  |  |  |  | >100 µM | >100 µM |  |
| CCOC(=O)C1=C(C)NC(=O)NC1 [Compound 4j, Ethyl 6-methyl-2-oxo-1,2,3,4-tetrahydropyrimidine-5-carboxylate] |  |  |  |  | >100 µM | >100 µM |  |
| CCOC(=O)C1=C(C)NC(=O)NC1C (centres unmarked) [Compound 4k, Ethyl 4,6-dimethyl-2-oxo-1,2,3,4-tetrahydropyrimidine-5-carboxylate] |  |  |  |  | >100 µM | >100 µM |  |
| CCOC(=O)C1=C(C)NC(=O)NC1CC(C)C (centres unmarked) [Compound 4l, Ethyl 6-methyl-4-(2-methylpropyl)-2-oxo-1,2,3,4-tetrahydropyrimidine-5-carboxylate] |  |  | >100 µM | >100 µM | >100 µM | >100 µM |  |
| CCCCCCCCCCCC1NC(=O)NC(C)=C1C(=O)OCC (centres unmarked) [Compound 4m, Ethyl 6-methyl-2-oxo-4-undecyl-1,2,3,4-tetrahydro-5-pyrimidinecarboxylate] | > 100 µM | > 100 µM | 100 µM |  | >100 µM | >100 µM | activity against Punta Toro virus (in words) (Punta Toro virus [2]): selective and potent inhibitor; also recorded: selective and potent antiviral activity; also recorded: potent and selective inhibitor; times more potent than dextran sulphate (DS-10000) (Punta Toro virus [2]): approximately 7 times; times more potent than mycophenolic acid (Punta Toro virus [2]): approximately 7 times; activity against Rift Valley fever virus (in words) [3]: negligible; reduction in RVFV-induced CPE [3]: about 40%; 50% inhibition of RVFV at 100 μM (in words) ([3]; 100 μM): unable to achieve 50% inhibition; activity against PTV in HeLa cells (in words) (Punta Toro virus [4]): inactive; antiviral activity against the virus panel (in words) [1]: did not have antiviral activity against all other viruses tested; toxicity in the other cell lines tested (in words) (other cell lines tested): no toxicity |
| CCOC(=O)C1C2NC(=O)NC1(C)Oc1ccccc12 (centres unmarked) [Compound 5, Ethyl 9-methyl-11-oxo-8-oxa-10,12-diazatricyclo[7.3.1.0^2,7]trideca-2,4,6-triene-13-carboxylate] | > 100 µM | > 100 µM | >100 µM | >100 µM | >100 µM | >100 µM |  |
| NC(=O)c1ncn([C@@H]2O[C@H](CO)[C@@H](O)[C@H]2O)n1 [Ribavirin, reference compound] |  | > 250 µM |  | >250 µM |  |  |  |
